The assay relates to Pisum sativum L. cv. Carneval. In words: Field study, seed yield of pea 'Carneval' (Table P1). In kind it is in vivo. The note with it: for Seed yield per 1 meter row: sprayed at about 5% first flower. An excerpt: In a field study, pea (Pisum sativum L. cv. Carneval) seed with a germination rate assessed at greater than 95% was planted on May 11, 2011 into black-loam soil that had been clean-cultivated for two previous growing seasons located at the Edmonton Research Station (ER31) of the University of Alberta, Edmonton, Alberta, Canada. The treatment plots measured 2 m wide by 3 m long, comprising rows 50 cm apart. The seeds were precision-drilled by hand at 5 cm intervals in each row. At the time of seeding, fresh TagTeam® granular rhizobial inoculant was drilled with the seed at the rate of 1.11 g per 6 m^2. No herbicides or pesticides were used during this study and plots were manually weeded to maintain weed-free plots. Seed emergence began on May 26, 2011 (15 days post-planting) due to cool temperature conditions after planting. Precipitation during the growing season was within the regional average. The treatments consisted of one application of aqueous 4-methyl-indole-3-acetic acid (4-ME-IAA) solutions at 1×10^−6M, 1×10^−5M, 5×10^−5M, or 1×10^−4M in 0.1% (v/v) Tween 80, or an aqueous control solution (0.1% [v/v] Tween 80) applied to the plants on Jul. 10, 2011, when about 5% of the plants were in first flower (1 treatment per plot; 5 treatments/plots total). A separate Chapin 20000-type 4 L pneumatic sprayer was used for applying each treatment solution; each sprayer was equipped with a medium-delivery blue fan nozzle designed to deliver 1.4 L per minute at the normal operating pressure of 40 PSI. Each plot was sprayed with a total of 0.7 L of solution to obtain uniform coverage. At the time of spraying, the mean day temperature was 15.9° C., the mean wind speed was 7 km/h, the relative humidity was 86%, and the sky was overcast. Harvesting (by hand) took place Aug. 27 to 30, 2011 after the plants had desiccated naturally. The pods were further dried for six days in a forced-air drier at 30° C. prior to obtaining seed weights. Each plot was harvested in eight groups of 20 contiguous plants arranged so that each group (1 m section of row) had at least two plants immediately next to it at each end. The treatment replication unit was 20 contiguous plants as diagramed in Figure P1. As the between-row spacing was 50 cm, the yield from each group represented that from 0.5 m^2

Each structure is given as a SMILES string.

Consider `Cc1cccc2[nH]cc(CC(=O)O)c12` [4-ME-IAA, 4-methyl-indole-3-acetic acid], for which the “increase in seed yield vs control” value (1×10^−4 M) was 28% and the “increase in seed yield vs control” value (1×10^−6 M) amounted to 43%. The “Seed yield per 1 meter row” value runs as follows: (1×10^−4 M) 123.20 ± 9.19 g; (1×10^−5 M) 105.63 ± 10.72 g; (1×10^−6 M) 137.84 ± 10.16 g; (5×10^−5 M) 78.85 ± 12.06 g.

For the origin of these results see patent publication US20140106967A1, “AUXIN PLANT GROWTH REGULATORS” (The Governors of The University of Alberta, priority 2011, published 2014).
